The values below come from the SangsterLogP compilation.

The nature of the first series: method code SF-AS, from DOI: 10.1016/0048-3575(87)90042-3.
As to `NC(=O)c1c(F)cccc1F`, the log partition coefficient (logP) turned out to be 0.25.
On the same count and under the same terms, for `CNC(=O)NC(=O)c1ccccc1` the value was 1.27; for `NC(=O)Nc1ccccc1`, 0.83.
Same read-out and setting: under `COc1ccccc1C(=O)NC(=O)Nc1ccc(Cl)cc1` stands 4.35; under `CCNC(=O)NC(=O)c1ccccc1`, 1.92; under `Cc1cccc([N+](=O)[O-])c1C(N)=O`, 0.12.
The compound `CC(=O)NC(=O)Nc1ccccc1` gave a logP of 1.6.
Still for that read-out and setting: for `O=C(NC(=O)c1ccccc1)Nc1ccccc1` the value was 3.39; for `Cc1cccc([N+](=O)[O-])c1C(=O)NC(=O)Nc1ccc(Cl)cc1`, 3.75.
Still for that read-out and setting: under `COc1ccccc1C(N)=O` stands 0.84.

A further series is described as follows: method code SF-GLC, from DOI: 10.1016/0048-3575(87)90042-3.
In the case of `CNC(=O)NC(C)=O`, the log partition coefficient (logP) was -0.7.
Still for that read-out and setting: for `CNC(N)=O` the value was -1.4; for `CCNC(=O)NC(C)=O`, -0.01.

By logP is commonly meant a log measure of how a compound divides between an organic and an aqueous phase.
